Test results from ChEMBL document CHEMBL1136896, “Synthesis and biological evaluation of arylhydrazinocyanoacrylates and N-aryl pyrazolecarboxylates” (2009).

Columns and labels:
Format in all cases: functional
Brassica napus [1] = assay: Herbicidal activity against Brassica napus at 1.5 kg/hectare administered postemergence of first true leaf measured after 10 days; conditions: post-emergence, 240 h
Amaranthus retroflexus [2] = assay: Herbicidal activity against Amaranthus retroflexus at 1.5 kg/hectare administered postemergence of first true leaf measured after 10 days; conditions: post-emergence, 240 h
Medicago sativa [3] = assay: Herbicidal activity against Medicago sativa at 1.5 kg/hectare administered postemergence of first true leaf measured after 10 days; conditions: post-emergence, 240 h
Digitaria sanguinalis [4] = assay: Herbicidal activity against Digitaria sanguinalis at 1.5 kg/hectare administered postemergence of first true leaf measured after 10 days; conditions: post-emergence, 240 h
Amaranthus retroflexus [5] = assay: Herbicidal activity against Amaranthus retroflexus at 1.5 kg/hectare administered preemergence of first true leaf measured after 10 days; conditions: pre-emergence, 240 h
Medicago sativa [6] = assay: Herbicidal activity against Medicago sativa at 1.5 kg/hectare administered preemergence of first true leaf measured after 10 days; conditions: pre-emergence, 240 h
Digitaria sanguinalis [7] = assay: Herbicidal activity against Digitaria sanguinalis (L.) Scop. at 1.5 kg/hectare administered preemergence of first true leaf measured after 10 days; conditions: pre-emergence, 240 h
Fusarium graminearum = assay: Fungicidal activity against Gibberella zeae assessed as inhibition of mycelium growth at 50 mg/L after 72 hrs
Alternaria solani = assay: Fungicidal activity against Alternaria solani assessed as inhibition of mycelium growth at 50 mg/L after 72 hrs
Mycosphaerella arachidis = assay: Fungicidal activity against Cercospora arachidicola assessed as inhibition of mycelium growth at 50 mg/L after 72 hrs
[8] = tested on: Botryosphaeria berengeriana; assay: Fungicidal activity against Physalospora pyricola assessed as inhibition of mycelium growth at 50 mg/L after 72 hrs
Cladosporium cucumerinum = assay: Fungicidal activity against Cladosporium cucumerinum assessed as inhibition of mycelium growth at 50 mg/L after 72 hrs
Cucumis sativus = assay: Growth regulatory activity in cucumber assessed as root growth at 10 mg/L incubated in dark for 5 days
Brassica napus [9] = assay: Herbicidal activity against Brassica napus L. at 1.5 kg/hectare administered preemergence of first true leaf measured after 10 days; conditions: pre-emergence, 240 h
HL-60 [10] = assay: Antitumor activity against human HL60 cells at 1000 uM/L after 72 hrs by MTT assay; conditions: HL-60, 72 h
HL-60 [11] = assay: Antitumor activity against human HL60 cells at 100 uM/L after 72 hrs by MTT assay; conditions: HL-60, 72 h
HL-60 [12] = assay: Antitumor activity against human HL60 cells at 10 uM/L after 72 hrs by MTT assay; conditions: HL-60, 72 h
HL-60 [13] = assay: Antitumor activity against human HL60 cells at 1 uM/L after 72 hrs by MTT assay; conditions: HL-60, 72 h
Bel-7402 [14] = assay: Antitumor activity against human Bel7402 cells at 1000 uM/L after 72 hrs by MTT assay; conditions: Bel-7402, 72 h
Bel-7402 [15] = assay: Antitumor activity against human Bel7402 cells at 100 uM/L after 72 hrs by MTT assay; conditions: Bel-7402, 72 h
Bel-7402 [16] = assay: Antitumor activity against human Bel7402 cells at 10 uM/L after 72 hrs by MTT assay; conditions: Bel-7402, 72 h
Bel-7402 [17] = assay: Antitumor activity against human Bel7402 cells at 1 uM/L after 72 hrs by MTT assay; conditions: Bel-7402, 72 h

Row | Structure (SMILES) | inhibition at 1500 g/ha (Brassica napus [1]) [%] | inhibition at 1500 g/ha (Amaranthus retroflexus [2]) [%] | inhibition at 1500 g/ha (Medicago sativa [3]) [%] | inhibition at 1500 g/ha (Digitaria sanguinalis [4]) [%] | inhibition at 1500 g/ha (Amaranthus retroflexus [5]) [%] | inhibition at 1500 g/ha (Medicago sativa [6]) [%] | inhibition at 1500 g/ha (Digitaria sanguinalis [7]) [%] | inhibition at 50 µg/mL (Fusarium graminearum) [%] | inhibition at 50 µg/mL (Alternaria solani) [%] | inhibition at 50 µg/mL (Mycosphaerella arachidis) [%] | inhibition at 50 µg/mL [8] [%] | inhibition at 50 µg/mL (Cladosporium cucumerinum) [%] | Activity (Cucumis sativus) [%] | inhibition at 1500 g/ha (Brassica napus [9]) [%] | inhibition at 1000 µM (HL-60 [10]) [%] | inhibition at 100 µM (HL-60 [11]) [%] | inhibition at 10 µM (HL-60 [12]) [%] | inhibition at 1 µM (HL-60 [13]) [%] | inhibition at 1000 µM (Bel-7402 [14]) [%] | inhibition at 100 µM (Bel-7402 [15]) [%] | other results
1 | CCOCCOC(=O)c1c(C(C)C)nn(-c2ccccc2)c1N | 58.8 | 0 | 0 | 0 | 0 | 0 | 0 | 46.7 | 32 | 20.6 | 32 | 1.8 | 46.3 | 15 | – | – | – | – | – | – | –
2 | O=C(O)Cc1c[nH]c2ccccc12 [INDOLE-3-ACETIC ACID] | – | – | – | – | – | – | – | – | – | – | – | – | >150 | – | – | – | – | – | – | – | –
3 | CCOCCOC(=O)/C(C#N)=C(\NNc1c(Cl)cccc1Cl)C(C)C | 2.3 | 15.6 | 1.4 | 0 | 0 | 0 | 0 | 4.8 | 10 | 0 | 10.7 | 0 | -6 | 9.9 | 73.4 | 21.4 | 7.7 | 0 | 45.1 | 17.3 | inhibition at 10 µM (Bel-7402 [16]): 9.5%; inhibition at 1 µM (Bel-7402 [17]): 7.6%
4 | CCOCCOC(=O)/C(C#N)=C(\NNc1ccc(Cl)cc1Cl)C(C)C | 1.6 | 3.9 | 7.5 | 17.9 | 0 | 0 | 3.8 | 4.8 | 40 | 51.5 | 73.3 | 22.2 | -27.8 | 0 | 73.2 | 17.6 | 6 | 0 | 45.9 | 6.5 | inhibition at 10 µM (Bel-7402 [16]): 4.3%; inhibition at 1 µM (Bel-7402 [17]): 5.3%
5 | CCOCCOC(=O)/C(C#N)=C(/CC)NNc1c(Cl)cccc1Cl | 11.1 | 22.7 | 2.3 | 0 | 8.8 | 0 | 0 | 0 | 10 | 24.4 | 24 | 0 | -6 | 5.3 | 80.4 | 72.4 | 35.9 | 4.3 | 79.8 | 54.6 | inhibition at 10 µM (Bel-7402 [16]): 17.1%; inhibition at 1 µM (Bel-7402 [17]): 11.5%
6 | CCOCCOC(=O)c1c(CC)nn(-c2ccccc2)c1N | 61.5 | 0 | 0 | 0 | 0 | 0 | 0 | 46.7 | 20 | 35.3 | 1.3 | 18.2 | 46.3 | 0 | – | – | – | – | – | – | –
7 | CCOCCOC(=O)c1c(SC)nn(-c2ccc(Cl)cc2)c1N | 0 | 0 | 0 | 0 | 0 | 0 | 0 | 37.8 | 20 | 26.5 | 36 | 23.6 | 66.6 | 0 | – | – | – | – | – | – | –
8 | CCOCCOC(=O)c1c(SC)nn(-c2ccc(C)cc2)c1N | 52.7 | 38 | 0 | 0 | 0 | 0 | 0 | 46.7 | 28 | 35.3 | 22.7 | 20 | 66.6 | 10 | – | – | – | – | – | – | –
9 | CCOCCOC(=O)c1c(CC)nn(-c2ccc([N+](=O)[O-])cc2)c1N | 15 | 0 | 0 | 0 | 0 | 0 | 0 | 11.1 | 8 | 39.2 | 40 | 36.4 | 5.6 | 0 | 41.5 | 13.1 | 1.3 | 0.8 | 45.2 | 0 | inhibition at 10 µM (Bel-7402 [16]): 0%; inhibition at 1 µM (Bel-7402 [17]): 0%
10 | CCOCCOC(=O)/C(C#N)=C(\NNc1cccc(Cl)c1Cl)C(C)C | 0.2 | 22.7 | 5.1 | 16.1 | 0 | 0 | 0 | 14.4 | 35 | 36.4 | 66.7 | 25 | 72.9 | 0 | 48.8 | 36.2 | 28.7 | 24.3 | 49.1 | 19 | inhibition at 10 µM (Bel-7402 [16]): 15.1%; inhibition at 1 µM (Bel-7402 [17]): 14.7%
11 | CCOCCOC(=O)/C(C#N)=C(\NCc1ccc(Cl)nc1)SC | 100 | 100 | 55.3 | 54.1 | 32.4 | 3.6 | 18.8 | – | – | – | – | – | – | 47.6 | – | – | – | – | – | – | –
12 | CCOCCOC(=O)c1c(CC)nn(-c2ccc(Cl)cc2)c1N | 0 | 0 | 0 | 0 | 0 | 0 | 0 | 53.3 | 0 | 41.2 | 38.7 | 14.5 | 111.3 | 0 | – | – | – | – | – | – | –
13 | CC1COC(Cn2cncn2)(c2ccc(Oc3ccc(Cl)cc3)cc2Cl)O1 (configuration not stated) [DIFENOCONAZOLE] | – | – | – | – | – | – | – | 100 | 100 | 100 | 100 | 100 | – | – | – | – | – | – | – | – | –
14 | CCOCCOC(=O)c1c(C(C)C)nn(-c2ccc(C)cc2)c1N | 40.7 | 0 | 20 | 0 | 0 | 0 | 0 | 51.1 | 12 | 20.6 | 13.3 | 40 | 21.9 | 15 | – | – | – | – | – | – | –
15 | CCOCCOC(=O)c1c(C(C)C)nn(-c2ccc(Cl)cc2)c1N | 26.4 | 0 | 0 | 0 | 0 | 0 | 0 | 44.4 | 0 | 23.5 | 33.3 | 23.6 | 38.2 | 40 | – | – | – | – | – | – | –
